Test results as given in patent publication US12030878B2 (BRISTOL-MYERS SQUIBB COMPANY, priority 2017, dated 2024).

Key:
Format in all cases: cell-based
[1] = target: T1, human TLR7 (Homo sapiens, UniProt Q9NYK1); assay: TLR7 inhibition reporter assay (HEK-Blue SEAP); settings: HEK-Blue cells overexpressing human TLR7, stimulated with gardiquimod 7.5 μM, 22 hour incubation
T1 construct: host or cells: HEK-Blue cells
T1 sequence (Q9NYK1 27-1049): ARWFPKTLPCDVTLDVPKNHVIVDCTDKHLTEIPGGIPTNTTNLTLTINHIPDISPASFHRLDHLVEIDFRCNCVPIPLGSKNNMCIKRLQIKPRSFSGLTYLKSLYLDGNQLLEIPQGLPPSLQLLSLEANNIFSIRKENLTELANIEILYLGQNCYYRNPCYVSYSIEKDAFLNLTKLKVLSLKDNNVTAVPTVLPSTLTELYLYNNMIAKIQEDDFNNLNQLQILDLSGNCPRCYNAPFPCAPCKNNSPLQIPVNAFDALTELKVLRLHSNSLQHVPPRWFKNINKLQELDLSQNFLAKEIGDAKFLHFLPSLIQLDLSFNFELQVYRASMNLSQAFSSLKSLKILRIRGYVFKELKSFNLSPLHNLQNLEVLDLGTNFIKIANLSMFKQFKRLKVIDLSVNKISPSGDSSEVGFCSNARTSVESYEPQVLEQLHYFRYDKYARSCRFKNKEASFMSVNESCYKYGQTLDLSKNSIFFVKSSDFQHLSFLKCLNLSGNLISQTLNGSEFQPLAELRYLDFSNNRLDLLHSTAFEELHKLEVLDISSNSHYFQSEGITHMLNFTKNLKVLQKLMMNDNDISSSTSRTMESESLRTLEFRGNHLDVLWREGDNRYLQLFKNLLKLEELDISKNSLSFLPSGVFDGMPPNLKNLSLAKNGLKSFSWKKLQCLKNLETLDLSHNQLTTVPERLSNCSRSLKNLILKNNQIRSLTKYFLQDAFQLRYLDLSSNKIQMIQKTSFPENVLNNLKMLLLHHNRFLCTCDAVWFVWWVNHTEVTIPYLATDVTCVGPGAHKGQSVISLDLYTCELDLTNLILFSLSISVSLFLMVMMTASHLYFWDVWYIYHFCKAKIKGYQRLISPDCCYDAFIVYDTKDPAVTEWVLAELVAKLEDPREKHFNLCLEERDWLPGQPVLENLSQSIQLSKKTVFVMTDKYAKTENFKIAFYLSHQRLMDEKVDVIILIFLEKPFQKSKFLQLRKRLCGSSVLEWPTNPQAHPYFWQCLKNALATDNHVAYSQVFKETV
Summary of the method: (§1)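 SEAP read-out via HEK-Blue Detection medium after 22 h at 37 °C; percent inhibition relative to agonist-plus-DMSO and known-inhibitor wells. Agonists: TLR7 gardiquimod 7.5 μM, TLR8 R848 15.9 μM, TLR9 ODN2006 5 nM. Dose range 0.05 nM–50 μM, 30 min compound pre-treatment at RT.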

[2] = target: T2, human TLR8 (Homo sapiens, UniProt Q9NR97); assay: TLR8 inhibition reporter assay (HEK-Blue SEAP); settings: HEK-Blue cells overexpressing human TLR8, stimulated with R848 15.9 μM, 22 hour incubation
T2 construct: host or cells: HEK-Blue cells
T2 sequence (Q9NR97 27-1041): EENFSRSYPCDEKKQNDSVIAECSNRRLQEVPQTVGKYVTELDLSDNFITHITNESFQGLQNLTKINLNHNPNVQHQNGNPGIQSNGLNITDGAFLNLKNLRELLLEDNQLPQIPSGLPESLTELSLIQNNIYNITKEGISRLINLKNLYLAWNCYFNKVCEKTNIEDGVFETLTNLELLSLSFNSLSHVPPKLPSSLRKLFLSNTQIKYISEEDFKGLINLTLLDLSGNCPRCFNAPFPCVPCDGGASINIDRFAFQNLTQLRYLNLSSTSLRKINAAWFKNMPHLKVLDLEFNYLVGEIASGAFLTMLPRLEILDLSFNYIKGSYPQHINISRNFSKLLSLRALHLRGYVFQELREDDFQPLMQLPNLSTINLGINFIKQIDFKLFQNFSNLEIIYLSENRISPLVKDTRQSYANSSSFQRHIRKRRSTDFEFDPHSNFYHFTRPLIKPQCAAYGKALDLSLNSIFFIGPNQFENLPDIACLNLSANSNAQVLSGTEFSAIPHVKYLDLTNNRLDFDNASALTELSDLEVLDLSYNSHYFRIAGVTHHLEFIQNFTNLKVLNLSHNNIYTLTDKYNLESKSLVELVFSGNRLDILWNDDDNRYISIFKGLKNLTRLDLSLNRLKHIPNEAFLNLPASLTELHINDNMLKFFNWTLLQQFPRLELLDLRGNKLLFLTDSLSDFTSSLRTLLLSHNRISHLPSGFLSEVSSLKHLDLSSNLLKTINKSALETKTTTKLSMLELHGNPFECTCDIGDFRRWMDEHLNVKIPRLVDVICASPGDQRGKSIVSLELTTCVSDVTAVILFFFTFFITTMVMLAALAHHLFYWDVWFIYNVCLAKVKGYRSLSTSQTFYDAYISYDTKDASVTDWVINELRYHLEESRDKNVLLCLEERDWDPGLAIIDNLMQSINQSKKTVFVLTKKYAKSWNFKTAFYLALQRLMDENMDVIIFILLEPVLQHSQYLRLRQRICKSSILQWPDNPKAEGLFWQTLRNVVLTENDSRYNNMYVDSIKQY
Summary of the method: as §1

[3] = target: T3, human TLR9 (Homo sapiens, UniProt Q9NR96); assay: TLR9 inhibition reporter assay (HEK-Blue SEAP); settings: HEK-Blue cells overexpressing human TLR9, stimulated with ODN2006 5 nM, 22 hour incubation
T3 construct: host or cells: HEK-Blue cells
T3 sequence (Q9NR96 26-1032): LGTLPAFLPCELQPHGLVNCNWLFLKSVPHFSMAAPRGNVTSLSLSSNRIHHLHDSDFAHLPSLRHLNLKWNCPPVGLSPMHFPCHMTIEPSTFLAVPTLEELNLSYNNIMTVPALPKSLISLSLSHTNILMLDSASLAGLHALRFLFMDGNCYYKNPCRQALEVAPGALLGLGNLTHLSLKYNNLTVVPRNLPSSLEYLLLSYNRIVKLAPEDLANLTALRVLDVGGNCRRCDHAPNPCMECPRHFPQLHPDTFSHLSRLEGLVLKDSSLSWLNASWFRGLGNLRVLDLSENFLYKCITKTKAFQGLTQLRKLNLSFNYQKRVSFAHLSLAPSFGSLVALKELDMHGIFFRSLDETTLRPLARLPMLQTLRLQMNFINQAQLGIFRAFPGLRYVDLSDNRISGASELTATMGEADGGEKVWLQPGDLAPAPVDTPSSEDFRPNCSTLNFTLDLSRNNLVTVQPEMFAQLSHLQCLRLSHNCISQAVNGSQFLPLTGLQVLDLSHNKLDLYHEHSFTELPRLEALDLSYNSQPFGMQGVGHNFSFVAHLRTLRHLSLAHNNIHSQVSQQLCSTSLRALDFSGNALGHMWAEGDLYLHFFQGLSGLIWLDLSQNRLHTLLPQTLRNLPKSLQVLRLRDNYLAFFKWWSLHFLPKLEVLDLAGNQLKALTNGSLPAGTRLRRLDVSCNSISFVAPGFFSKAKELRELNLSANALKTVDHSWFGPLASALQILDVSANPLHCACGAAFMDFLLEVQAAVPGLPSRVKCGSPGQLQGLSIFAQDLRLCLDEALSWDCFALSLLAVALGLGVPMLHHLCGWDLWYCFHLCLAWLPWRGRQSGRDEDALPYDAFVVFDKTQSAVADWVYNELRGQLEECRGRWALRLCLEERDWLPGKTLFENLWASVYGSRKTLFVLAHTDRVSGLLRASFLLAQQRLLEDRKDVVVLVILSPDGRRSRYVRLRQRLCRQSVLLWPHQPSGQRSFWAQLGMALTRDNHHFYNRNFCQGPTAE
Summary of the method: as §1

## Cc1cc(-c2[nH]c3ccc(OCC4CCNCC4)cc3c2C(C)C)ccn1 [Example 156]
[1]
  IC50: 12.9 nM
[2]
  IC50: 3.2 nM
[3]
  IC50: 721 nM

## Cc1cc(-c2[nH]c3ccc(O[C@@H]4CCNC4)cc3c2C(C)C)ccn1 [Example 157, (R)-3-isopropyl-2-(2-methylpyridin-4-yl)-5-(pyrrolidin-3-yloxy)-1H-indole]
[1]
  IC50: 8.7 nM
[2]
  IC50: 7 nM
[3]
  IC50: 1910 nM

## COc1ccc(-c2[nH]c3ccc(OCCC4CCNCC4)cc3c2C(C)C)cc1OC [Example 158, 2-(3,4-dimethoxyphenyl)-3-isopropyl-5-(2-(piperidin-4-yl)ethoxy)-1H-indole]
[1]
  IC50: 49 nM
[2]
  IC50: 27.6 nM
[3]
  IC50: 2990 nM

## COc1ccc(-c2[nH]c3ccc(OCC4CCNCC4)cc3c2C(C)C)cc1OC [Example 159, 2-(3,4-dimethoxyphenyl)-3-isopropyl-5-(piperidin-4-ylmethoxy)-1H-indole]
[1]
  IC50: 36.1 nM
[2]
  IC50: 25.6 nM
[3]
  IC50: 2320 nM

## COc1ccc(-c2[nH]c3ccc(OCC4CCN(Cc5ccccc5)CC4)cc3c2C(C)C)cc1OC [Example 160, 5-((1-benzylpiperidin-4-yl)methoxy)-2-(3,4-dimethoxyphenyl)-3-isopropyl-1H-indole]
[1]
  IC50: 275 nM
[2]
  IC50: 128 nM
[3]
  IC50: 7570 nM

## CCc1c(-c2ccnc(C)c2)[nH]c2ccc(OCC3CCNCC3)cc12 [Example 161, 3-ethyl-2-(2-methylpyridin-4-yl)-5-(piperidin-4-ylmethoxy)-1H-indole]
[1]
  IC50: 22 nM
[2]
  IC50: 4.2 nM
[3]
  IC50: 218 nM

## CCc1c(-c2ccc(OC)c(OC)c2)[nH]c2ccc(OCC3CCNCC3)cc12 [Example 162, 2-(3,4-dimethoxyphenyl)-3-ethyl-5-(piperidin-4-ylmethoxy)-1H-indole]
[1]
  IC50: 105 nM
[2]
  IC50: 22.8 nM
[3]
  IC50: 2530 nM

## CCc1c(-c2ccnc(C)c2)[nH]c2ccc(OC3CCNCC3)cc12 [Example 163, 3-ethyl-2-(2-methylpyridin-4-yl)-5-(piperidin-4-yloxy)-1H-indole]
[1]
  IC50: 146 nM
[2]
  IC50: 9 nM
[3]
  IC50: 1810 nM

## Cc1cc(-c2[nH]c3ccc(OC4CCNCC4)cc3c2C(C)C)ccn1 [Example 164, 3-isopropyl-2-(2-methylpyridin-4-yl)-5-(piperidin-4-yloxy)-1H-indole]
[1]
  IC50: 11.2 nM
[2]
  IC50: 1.1 nM
[3]
  IC50: 1080 nM

## Cc1cc(-c2[nH]c3ccc(OCc4ccccc4)cc3c2C(C)C)ccn1 [Example 165, 5-(benzyloxy)-3-isopropyl-2-(2-methylpyridin-4-yl)-1H-indole]
[1]
  IC50: 5920 nM
[2]
  IC50: 1290 nM
[3]
  IC50: > 50000 nM

## Cc1cc(-c2[nH]c3ccc(OCCN4CCCC4)cc3c2C(C)C)ccn1 [Example 166, 3-isopropyl-2-(2-methylpyridin-4-yl)-5-(2-(pyrrolidin-1-yl)ethoxy)-1H-indole]
[1]
  IC50: 65.1 nM
[2]
  IC50: 3.1 nM
[3]
  IC50: 987 nM

## Cc1cc(-c2[nH]c3ccc(OCCN(C)C)cc3c2C(C)C)ccn1 [Example 167, 2-((3-isopropyl-2-(2-methylpyridin-4-yl)-1H-indol-5-yl)oxy)-N,N-dimethylethan-1-amine]
[1]
  IC50: 69 nM
[2]
  IC50: 3.1 nM
[3]
  IC50: 1920 nM

## Cc1cc(-c2[nH]c3ccc(OCc4ccc(N5CCOCC5)cc4)cc3c2C(C)C)ccn1 [Example 168, 4-(4-(((3-isopropyl-2-(2-methylpyridin-4-yl)-1H-indol-5-yl)oxy)methyl)phenyl)morpholine]
[1]
  IC50: 4930 nM
[2]
  IC50: 134 nM
[3]
  IC50: > 50000 nM

## Cc1cc(-c2[nH]c3ccc(OCc4cccnc4)cc3c2C(C)C)ccn1 [Example 169, 3-isopropyl-2-(2-methylpyridin-4-yl)-5-(pyridin-3-ylmethoxy)-1H-indole]
[1]
  IC50: 200 nM
[2]
  IC50: 181 nM
[3]
  IC50: 28400 nM

## COc1ccc(-c2[nH]c3ccc(O[C@H]4CCNC4)cc3c2C(C)C)cc1OC [Example 170, (S)-2-(3,4-dimethoxyphenyl)-3-isopropyl-5-(pyrrolidin-3-yloxy)-1H-indole]
[1]
  IC50: 83.9 nM
[2]
  IC50: 31.3 nM
[3]
  IC50: 1080 nM

## COc1ccc(-c2[nH]c3ccc(OC4CCNCC4)cc3c2C(C)C)cc1OC [Example 171, 2-(3,4-dimethoxyphenyl)-3-isopropyl-5-(piperidin-4-yloxy)-1H-indole]
[1]
  IC50: 166 nM
[2]
  IC50: 15.3 nM
[3]
  IC50: 939 nM

## CNCCOc1ccc2[nH]c(-c3ccnc(C)c3)c(C(C)C)c2c1 [Example 172, 2-((3-isopropyl-2-(2-methylpyridin-4-yl)-1H-indol-5-yl)oxy)-N-methylethan-1-amine]
[1]
  IC50: 119 nM
[2]
  IC50: 12.7 nM
[3]
  IC50: 3120 nM

## COc1ccc(-c2[nH]c3ccc(OCCN4CCOCC4)cc3c2C(C)C)cc1OC [Example 173, 4-(2-((2-(3,4-dimethoxyphenyl)-3-isopropyl-1H-indol-5-yl)oxy)ethyl)morpholine]
[1]
  IC50: 682 nM
[2]
  IC50: 63.3 nM
[3]
  IC50: 5050 nM
